The values that follow come from patent publication US20210085582A1, “SYNERGISTIC ANTIOXIDANT ACID COMPOUND ASSOCIATIONS” (L'OREAL, priority 2019, published 2021).

The assay can be described thus: oxygen radical absorbance capacity (ORAC) assay, antioxidant (AOX) strength testing. To be noted: 0.5% ferulic acid, 0.5% salicylic acid. The source says: The peroxyl radical, generated from the thermal decomposition of 2,2'-azobis-2-methyl-propanimidamide dihydrochloride (AAPH), will quench a fluorescent probe by a hydrogen atom transfer reaction. In the presence of an antioxidant, however, the molecule will initially block or prevent the quenching of the probe, causing a delay in the fluorescence decay profile. The area under the fluorescence decay curves for samples with and without the presence of an antioxidant are compared to that of a standard reference material and the peroxyl radical antioxidant capacity is determined. References disclosing ORAC assays include Cao G, Alessio H, Cutler R (1993). “Oxygen-radical absorbance capacity assay for antioxidants”. Free Radic Biol Med 14 (3): 303-11; Ou B, Hampsch-Woodill M, Prior R (2001). “Development and validation of an improved oxygen radical absorbance capacity assay using fluorescein as the fluorescent probe”. J Agric Food Chem 49 (10): 4619-26; Huang D, Ou B, Prior R (2005). “The chemistry behind antioxidant capacity assays”. J. Agric. Food Chem. 53 (6): 1841-56; and Garrett A R, Murray B K, Robison […] (2010). “Measuring antioxidant capacity using the ORAC and TOSC assays”. Advanced Protocols in Oxidative Stress II: Methods in Molecular Biology (series), Donald J Armstrong (ed) 594: 251-62.

As to `O=C1CC[C@@H](C(=O)[O-])N1.O=C1CC[C@@H](C(=O)[O-])N1.[Zn+2]` [Zinc PCA], the “contribution to antioxidant potential of the association” value (Zinc PCA 0.5% added to compositions with 15% ascorbic acid) is given as “not found to be a contributing factor”.
Take `O=C(O)c1cc(O)c(O)c(O)c1` [gallic acid, 3,4,5-trihydroxybenzoic acid]: the “effect on overall antioxidant capacity of the association” value (1% gallic acid added to 15% ascorbic acid) is reported as “modest” and the “effect on overall antioxidant capacity of the association” value (5% gallic acid added to 15% ascorbic acid) is on record as “significant”.
